Data: US10562912B2 (C&C Research Laboratories, priority 2013, dated 2020)

Experiments:
Format in all cases: cell-based
HEL92.1.7 = test: Cell growth inhibition assay, blood cancer cell line HEL92.1.7; conditions: Homo sapiens, HEL 92.1.7, HEL92.1.7 blood cancer cell line
Description: The inhibitory effects of the compounds of the present invention against the growth of cancer cells were evaluated as shown below. The cancer cell lines including stomach cancer cell line (AGS), breast cancer cell lines (MDA-MB-231, MDA-MB-468, and BT-549), prostate cancer cell lines (LNCaP and DU-145), colon cancer cell line (HCT116), ovarian cancer cell line (SW626), liver cancer cell line (Hep3B), kidney cancer cell line (ACHN), lung cancer cell line (NCI-H23) and blood cancer cell lines (HEL92.1.7 and U266) were cultured under the protocol provided by each supplier. A medium supplemented with 10 ng/mL of IL-6 was used for LNCaP, a prostate cancer cell line, when treated with a drug. Each type of cells to be used in experiments were sub-cultured in a 96-well plate by counting the exact number of cells using Tali™ Image-based Cytometer (Life Technologies). In a 96-well plate, AGS, HCT116, and DU-145 were employed with 3,000 cells/well; NCI-H23, SW626, Hep3B, ACHN, BT-549, MDA-MB-231, HEL92.1.7, and U266 were employed with 5,000 cells/well; and LNCaP and MDA-MB-468 were employed with 10,000 cells/well. The cells were treated with the compounds listed in Examples which were diluted in various concentrations. Upon completion of the compounds treatment, AGS, HCT116, SW626, DU145, NCI-H23, Hep3B, ACHN, BT-549, LNCaP, HEL92.1.7, and U266 cells were cultured at 37° C. under 5% CO2 for from 72 to 96 hours, and MDA-MB-231 and MDA-MB-468 cells were cultured at 37° C. in air for from 72 to 96 hours. Subsequently, the cells were observed under microscope and drug precipitation and particular findings were investigated and recorded. And then, the 96-well plate was placed at room temperature for 30 minutes, added with 20 μL/well of CellTiter-Glo solution (Cat No. G7573, Promega) and shaken for 10 minutes, followed by being subjected to the measurement using PHERAstar™ microplate reader (BMG LABTECH) according to the supplier's general luminometer protocol. Wells where only culture liquid added without cell plating were used as a negative control, whereas wells where culture liquid containing 0.1% DMSO instead of the compounds listed in Examples were used as a positive control.

DU-145 = test: Cell growth inhibition assay, prostate cancer cell line DU-145; conditions: Homo sapiens, DU-145 prostate cancer cell line
Outline: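 DU-145 and HCT116 cells were plated at 3,000 cells/well and SW626 at 5,000 cells/well, then treated with serially diluted compounds. After 72 to 96 hours at 37° C. under 5% CO2, viability was read by CellTiter-Glo luminescence against cell-free medium wells and 0.1% DMSO wells.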

STAT3 = biological target: T1, STAT3 (Homo sapiens, UniProt P40763); test: STAT3 reporter gene assay (luciferase), LNCaP stable cell line (pSTAT3-TA-luc), IL-6 stimulation
T1 construct: plasmid pSTAT3-TA-luc), which contains a stably operating STAT3 promoter; endogenous in cells
T1 sequence (P40763 whole entry): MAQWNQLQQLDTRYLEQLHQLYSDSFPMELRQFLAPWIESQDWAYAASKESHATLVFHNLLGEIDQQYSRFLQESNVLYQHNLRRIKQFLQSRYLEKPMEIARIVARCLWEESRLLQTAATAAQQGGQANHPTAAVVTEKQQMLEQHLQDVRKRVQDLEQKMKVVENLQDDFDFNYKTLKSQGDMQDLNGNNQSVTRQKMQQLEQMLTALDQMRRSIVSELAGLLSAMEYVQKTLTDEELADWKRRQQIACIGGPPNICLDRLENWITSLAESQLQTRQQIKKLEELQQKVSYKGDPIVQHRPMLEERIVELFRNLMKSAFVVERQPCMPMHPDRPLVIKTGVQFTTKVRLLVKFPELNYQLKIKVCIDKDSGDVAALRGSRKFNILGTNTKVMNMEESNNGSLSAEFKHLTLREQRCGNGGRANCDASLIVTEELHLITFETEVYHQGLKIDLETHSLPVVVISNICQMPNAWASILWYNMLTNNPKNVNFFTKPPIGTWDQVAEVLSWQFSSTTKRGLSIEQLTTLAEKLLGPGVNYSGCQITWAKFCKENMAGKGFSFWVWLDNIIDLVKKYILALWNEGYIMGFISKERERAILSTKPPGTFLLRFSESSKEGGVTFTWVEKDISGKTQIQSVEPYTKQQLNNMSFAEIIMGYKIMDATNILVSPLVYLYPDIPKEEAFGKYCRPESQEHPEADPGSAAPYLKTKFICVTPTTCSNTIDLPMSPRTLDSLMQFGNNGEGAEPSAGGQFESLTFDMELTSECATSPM
Outline: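 LNCaP cells stably carrying pSTAT3-TA-luc, in RPMI1640 with 3% DCC-FBS, were treated with compound and then stimulated with 10 ng/mL IL-6 for 24–48 h at 37 °C. Luciferase activity was measured in lysates. A parallel plate measured viability by CellTiter-Glo, with stimulated 0.1% DMSO wells as the positive control.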

LNCaP = test: Cell growth inhibition assay, prostate cancer cell line LNCaP (medium with 10 ng/mL IL-6); conditions: Homo sapiens, medium supplemented with 10 ng/mL of IL-6, 10,000 cells/well

Row | SMILES | IC50 (HEL92.1.7) [µM] | IC50 (DU-145) [µM] | IC50 (STAT3) [µM] | IC50 (LNCaP) [µM]
1 | CN(C)S(=O)(=O)N1CCN(Cc2cc(OC(F)(F)C(F)F)cc(C(C)(C)c3cc(Br)cc(NC(=O)c4cc5cc(NS(C)(=O)=O)ccc5s4)c3)c2)CC1 [Example 139, N-(3-bromo-5-(2-(3-((4-(N,N-dimethylsulfamoyl)piperazin-1-yl)methyl)-5-(1,1,2,2-tetrafluoroethoxy)phenyl)propan-2-yl)phenyl)-5-(methylsulfonamido)benzo[b]thiophene-2-carboxamide] | 0.69 | 0.073 | 0.11 | 0.17
2 | CC(C)Oc1cc(OC(F)(F)F)cc(C(C)(C)c2cc(Cl)cc(NC(=O)c3cc4nc(NS(C)(=O)=O)cnc4s3)c2)c1 [Example 151, N-(3-chloro-5-(2-(3-isopropoxy-5-(trifluoromethoxy)phenyl)propan-2-yl)phenyl)-2-(methylsulfonamido)thieno[2,3-b]pyrazine-6-carboxamide] | 4.7 | > 1.1 | 2.2 | 0.36
3 | CC(C)Oc1cc(OC(F)(F)F)cc(C(C)(C)c2cc(Cl)cc(N(C)C(=O)c3cc4cc(N(C)S(C)(=O)=O)c(F)cc4s3)c2)c1 [Example 216, N-(3-chloro-5-(2-(3-isopropoxy-5-(trifluoromethoxy)phenyl)propan-2-yl)phenyl)-6-fluoro-N-methyl-5-(N-methylmethylsulfonamido)benzo[b]thiophene-2-carboxamide] | 0.95 | 0.3 | 0.38 | 1.1
4 | O=C(Nc1cc(Cl)cc(-c2ccc(F)cc2F)c1)c1cc2cc(NS(=O)(=O)C3CCOC3)ccc2s1 (centres unmarked) [Example 327, N-(5-chloro-2′,4′-difluoro-[1,1′-biphenyl]-3-yl)-5-((tetrahydrofuran)-3-sulfonamido)benzo[b]thiophene-2-carboxamide] | 0.082 | 0.034 | 0.041 | 0.088
5 | CC(C)Oc1cc(-c2cnn(C)c2)cc(C(C)(C)c2cc(Cl)cc(NC(=O)c3cc4cc(NS(C)(=O)=O)ccc4s3)c2)c1 [Example 143, N-(3-chloro-5-(2-(3-isopropoxy-5-(1-methyl-1H-pyrazol-4-yl)phenyl)propan-2-yl)phenyl)-5-(methylsulfonamido)benzo[b]thiophene-2-carboxamide] | 0.48 | 0.18 | 0.29 | 0.47
6 | CSc1ccc(C(C)(C)c2cc(Cl)cc(NC(=O)c3cc4cc(NS(C)(=O)=O)ccc4s3)c2)cc1 [Example 157, N-(3-chloro-5-(2-(4-(methylthio)phenyl)propan-2-yl)phenyl)-5-(methylsulfonamido)benzo[b]thiophene-2-carboxamide] | 0.23 | 0.06 | 0.063 | 0.079
7 | CN(c1cc2cc(C(=O)Nc3cc(Cl)cc(C(C)(C)c4ccc(Cl)cc4)c3)sc2cc1F)S(C)(=O)=O [Example 163, N-(3-chloro-5-(2-(4-chlorophenyl)propan-2-yl)phenyl)-6-fluoro-5-(N-methylmethylsulfonamido)benzo[b]thiophene-2-carboxamide] | 0.019 | 0.016 | 0.011 | 0.013
8 | CC(C)Oc1cc(OC(F)(F)F)cc(C(C)(C)c2cc(Cl)cc(NC(=O)c3cc4cc(N(CCN5CCOCC5)S(C)(=O)=O)c(F)cc4s3)c2)c1 [Example 217, N-(3-chloro-5-(2-(3-isopropoxy-5-(trifluoromethoxy)phenyl)propan-2-yl)phenyl)-6-fluoro-5-(N-(2-morpholinoethyl)methylsulfonamido)benzo[b]thiophene-2-carboxamide] | > 1.1 | 0.58 | 2.06 | > 1.1
9 | CC(C)Oc1cc(OC(F)(F)F)cc(C(C)(C)c2cc(Cl)cc(NC(=O)c3nc4cc(NS(C)(=O)=O)ccc4s3)c2)c1 [Example 81, N-(3-chloro-5-(2-(3-isopropoxy-5-(trifluoromethoxy)phenyl)propan-2-yl)phenyl)-5-(methylsulfonamido)benzo[d]thiazole-2-carboxamide] | 0.34 | 0.11 | 0.055 | 0.15
10 | CC(C)Oc1cc(N2CCOCC2)cc(C(C)(C)c2cc(Cl)cc(NC(=O)c3cc4cc(NS(C)(=O)=O)ccc4s3)c2)c1 [Example 145, N-(3-chloro-5-(2-(3-isopropoxy-5-morpholinophenyl)propan-2-yl)phenyl)-5-(methylsulfonamido)benzo[b]thiophene-2-carboxamide] | 0.16 | 0.06 | 0.067 | 0.04
11 | CC(C)Oc1cc(OC(F)(F)F)cc(C(C)(C)c2cc(Cl)cc(NC(=O)c3cc4cc(NS(=O)(=O)CC5CCOC5)ccc4s3)c2)c1 (centres unmarked) [Example 196, N-(3-chloro-5-(2-(3-isopropoxy-5-(trifluoromethoxy)phenyl)propan-2-yl)phenyl)-5-(((tetrahydrofuran-3-yl)methyl)sulfonamido)benzo[b]thiophene-2-carboxamide] | 0.12 | 0.022 | 0.02 | 0.084
12 | CC(C)Oc1cc(OC(F)(F)F)cc(C(C)(C)c2cc(Cl)cc(NC(=O)c3cc4cc(NS(=O)(=O)c5cnn(C)c5)ccc4s3)c2)c1 [Example 201, N-(3-chloro-5-(2-(3-isopropoxy-5-(trifluoromethoxy)phenyl)propan-2-yl)phenyl)-5-((1-methyl-1H-pyrazole)-4-sulfonamido)benzo[b]thiophene-2-carboxamide] | 0.053 | 0.018 | 0.029 | 0.064
13 | CC(=O)N1CCC(S(=O)(=O)Nc2ccc3sc(C(=O)Nc4cc(Cl)cc(C(C)(C)c5cc(OC(C)C)cc(OC(F)(F)F)c5)c4)cc3c2)CC1 [Example 206, 5-((1-acetylpiperidine)-4-sulfonamido)-N-(3-chloro-5-(2-(3-isopropoxy-5-(trifluoromethoxy)phenyl)propan-2-yl)phenyl)benzo[b]thiophene-2-carboxamide] | 0.35 | 0.051 | 0.19 | 0.19
14 | CC(C)Oc1cc(OC(F)(F)F)cc(C(C)(C)c2cc(Cl)cc(NC(=O)c3cc4cc(N(CCN(C)C)S(C)(=O)=O)c(F)cc4s3)c2)c1 [Example 219, N-(3-chloro-5-(2-(3-isopropoxy-5-(trifluoromethoxy)phenyl)propan-2-yl)phenyl)-5-(N-(2-(dimethylamino)ethyl)methylsulfonamido)-6-fluorobenzo[b]thiophene-2-carboxamide] | 0.9 | 0.18 | 1.19 | 0.19
15 | CS(=O)(=O)Nc1ccc2sc(C(=O)Nc3cc(Cl)cc(Oc4ccc(Cl)cc4)c3)cc2c1 [Example 445, N-(3-chloro-5-(4-chlorophenoxy)phenyl)-5-(methylsulfonamido)benzo[b]thiophene-2-carboxamide] | 0.15 | 0.055 | 0.066 | 0.074
16 | CS(=O)(=O)Nc1ccc2sc(C(=O)Nc3cc(Cl)cc(Oc4ccc(F)cc4F)c3)cc2c1 [Example 444, N-(3-chloro-5-(2,4-difluorophenoxy)phenyl)-5-(methylsulfonamido)benzo[b]thiophene-2-carboxamide] | 0.65 | 0.13 | 0.083 | 0.24
17 | CC(C)Oc1cc(OC(F)(F)F)cc(C(C)(C)c2cc(Cl)cc(NC(=O)c3cc4cc(NS(=O)(=O)C5CCOC5)ccc4s3)c2)c1 (centres unmarked) [Example 204, N-(3-chloro-5-(2-(3-isopropoxy-5-(trifluoromethoxy)phenyl)propan-2-yl)phenyl)-5-((tetrahydrofuran)-3-sulfonamido)benzo[b]thiophene-2-carboxamide] | 0.05 | 0.017 | 0.051 | 0.095
